Results as given in patent publication US10807959B2, “WDR5-MLL1 inhibitors and modulators” (Vanderbilt University, priority 2018, dated 2020).

Biological target: WDR5 (Homo sapiens (Human), UniProt P61964)
Experiment: Fluorescence polarization anisotropy (FPA) competition assay, displacement of FITC-MLL or 10mer-Thr-FAM peptide
Assay type: binding
Source text: The assay is run in 384-well format and is read on a BioTek Cytation. […] Replicate values are fit to a 4-parameter fit in XLFit to generate a single IC50 value for each compound that is then converted to a Ki value. Experiments are repeated to generate a 2nd, independent Ki value; values from the two experiments are averaged to produce the reported Ki value for the compound.

[1] = Table C2, WDR5 WIN-site binding affinity, values not less than 1 nM (FPA)
[2] = Inhibition of WDR5 by FPA assay
[3] = Table B2, WDR5 WIN-site binding affinity, values not less than 1 nM (FPA)

COc1cc(OC)cc(C(C)NC(=O)c2cc(CNC3=NCCN3)ccn2)c1 (centres unmarked) [Example C20, 4-(((4,5-dihydro-1H-imidazol-2-yl)amino)methyl)-N-(1-(3,5-dimethoxyphenyl)ethyl)picolinamide]
Ki [1]: 30.3 nM

CC(C)(NC(=O)c1cc(Cn2ccnc2)cc(-c2ccc(F)cc2Cl)n1)C1CC1 [Example 149, 4-((1H-imidazol-1-yl)methyl)-6-(2-chloro-4-fluorophenyl)-N-(2-cyclopropylpropan-2-yl)picolinamide]
Ki [2]: 8.6 nM

Cc1cc(C)cc(CNC(=O)c2cc(CNC3=NCCN3)cc(-c3ccc(F)cc3Cl)c2)c1 [Example B55]
Ki [3]: 1.27 nM

COc1cc(Cn2ccnc2)cc(C(=O)NCc2ccc(Cl)c(C)c2)c1 [Example 113, 3-((1H-Imidazol-1-yl)methyl)-N-(4-chloro-3-methylbenzyl)-5-methoxybenzamide]
Ki [2]: 141 nM

COc1cc(OC)cc(C(C)NC(=O)c2ccc(OC(C)C)c(CNC3=NCCC3)c2)c1 (centres unmarked) [Example B124]
Ki [3]: > 33 nM

COc1cncc(-c2cc(Cn3ccnc3)cc(C(=O)NCc3ccc(Cl)c(Cl)c3)c2)c1 [Example 128, 3-((1H-Imidazol-1-yl)methyl)-N-(3,4-dichlorobenzyl)-5-(5-methoxypyridin-3-yl)benzamide]
Ki [2]: 2.2 nM

3-(((4,5-dihydro-1H-imidazol-2-yl)amino)methyl)-N-(3,5-dimethoxybenzyl)-4,5-difluorobenzamide [Example B30]
Ki [3]: 5.32 nM

CC(C)Oc1ccc(C(=O)NCc2ccc(Cl)c(Cl)c2)cc1CNC1=NCCC1 [Example B125]
Ki [3]: > 33 nM

CC(C)Oc1ccc(C(=O)NCc2ccc(Cl)c(Cl)c2)cc1CNC1=NCCN1 [Example B53]
Ki [3]: 40.9 nM

COc1ccnc(CNC(=O)c2ccc(OC)c(CNC3=NCCN3)c2)c1 [Example B40]
Ki [3]: 7.21 nM

CC(NC(=O)c1cc(Cl)cc(CNC2=NCCN2)c1)c1cccc(Cl)c1 (centres unmarked) [Example B12]
Ki [3]: 65.1 nM

COc1cc(CNC(=O)c2ccc(OC)c(CNC3=NCCN3)c2)ccc1Cl [Example B38]
Ki [3]: 24.5 nM

O=C(NCc1cc(Cl)cc(Cl)c1)c1cc(Cl)cc(Cn2ccnc2)c1 [Example 110, 3-((1H-Imidazol-1-yl)methyl)-5-chloro-N-(3,5-dichlorobenzyl)benzamide]
Ki [2]: 33.7 nM

COc1cc(CN(C)C(=O)c2ccc(F)c(CNC3=NCCN3)c2)cc(OC)c1 [Example B24]
Ki [3]: 49.8 nM

Cc1cc(CNC(=O)c2cccc(CNC3=NCCN3)c2)ccc1Cl [Example B4]
Ki [3]: 11.9 nM

COc1cc(CNC(=O)c2cc(CNC3=NCCC3)cc(-c3ccc(F)cc3C(F)(F)F)n2)cc(OC)c1 [Example C27]
Ki [1]: 1.58 nM

CCOc1ccc(C(=O)NC(c2cc(C)ccn2)C2CC2)cc1CNC1=NCCN1 (centres unmarked) [Example B50]
Ki [3]: 12.4 nM

Cc1cnc(C(C)NC(=O)c2cc(CNC3=NCCC3)cc(-c3ccc(F)cc3C(F)(F)F)n2)cc1Cl (centres unmarked) [Example C32]
Ki [1]: 1.54 nM

Cc1ccnc(CNC(=O)c2ccc(F)c(CNC3=NCCN3)c2)c1 [Example B29]
Ki [3]: 24.9 nM

COc1ccc(CNC(=O)c2ccc(F)c(CNC3=NCCN3)c2)cc1OC [Example B19]
Ki [3]: 8.06 nM

COc1ccc(C(=O)NCc2cc(Cl)ccn2)cc1CNC1=NCCN1 [Example B39]
Ki [3]: 1.39 nM

Cc1ccnc(C(NC(=O)c2cc(CNC3=NCCN3)c(F)cc2F)C2CC2)c1 (centres unmarked) [Example B48]
Ki [3]: 2.17 nM

Cc1cc(C)cc(CNC(=O)c2cc(Cl)cc(CNC3=NCCN3)c2)c1 [Example B11]
Ki [3]: 46 nM

COc1cc(CNC(=O)c2cc(CNC3=NCCC3)cc(-c3ccc(F)cc3C)n2)cc(OC)c1 [Example C24]
Ki [1]: 11.7 nM

O=C(NCc1ccc(Cl)c(Cl)c1)c1cc(Cn2ccnc2C(F)(F)F)cc(-c2ccc(F)cc2Cl)c1 [Example 135, 2′-Chloro-N-(3,4-dichlorobenzyl)-4′-fluoro-5-((2-(trifluoromethyl)-1H-imidazol-1-yl)methyl)-[1,1′-biphenyl]-3-carboxamide]
Ki [2]: > 10000 nM

COc1ccc(C(=O)NCc2ccc(F)c(CNC3=NCCN3)c2)cc1Cl [Example B26]
Ki [3]: 3.24 nM

Cc1cc(C)cc(CNC(=O)c2cc(Cn3ccnc3)cc(-c3ccc(F)cc3Cl)n2)c1 [Example 153, 4-((1H-Imidazol-1-yl)methyl)-6-(2-chloro-4-fluorophenyl)-N-(3,5-dimethylbenzyl)picolinamide]
Ki [2]: 4.8 nM

COc1cc(OC)cc(C(C)NC(=O)c2ccc(OC)c(CNC3=NCCN3)c2)c1 (centres unmarked) [Example B43]
Ki [3]: 1.82 nM

O=C(NCc1ccc(Cl)c(Cl)c1)c1cc(Cl)cc(CNC2=NCCN2)c1 [Example B8]
Ki [3]: 10.7 nM

Cc1ccncc1-c1cc(CNC2=NCCN2)cc(C(=O)NCc2cccc(F)n2)c1 [Example B89]
Ki [3]: 4.39 nM

Cc1cnc(CNC(=O)c2ccc(F)c(CNC3=NCCN3)c2)cn1 [Example B46]
Ki [3]: 3.96 nM

COc1ccc(C(=O)NCc2ccc(Cl)cn2)cc1CNC1=NCCN1 [Example B44]
Ki [3]: 20.3 nM

COc1cc(CNC(=O)c2cc(Cn3ccnc3)cc(-c3ccoc3C)c2)cc(OC)c1 [Example 130, 3-((1H-Imidazol-1-yl)methyl)-N-(3,5-dimethoxybenzyl)-5-(2-methylfuran-3-yl)benzamide]
Ki [2]: 2.1 nM

Cc1ccnc(C(NC(=O)c2ccc(F)c(CNC3=NCCN3)c2)C2CC2)c1 (centres unmarked) [Example B20]
Ki [3]: 4.6 nM

CCC(NC(=O)c1cc(Cn2ccnc2)cc(-c2ccc(F)cc2Cl)n1)C1CC1 (centres unmarked) [Example 152, 4-((1H-Imidazol-1-yl)methyl)-6-(2-chloro-4-fluorophenyl)-N-(1-cyclopropylpropyl)picolinamide]
Ki [2]: 13.1 nM

O=C(NCc1cc(Cl)ccn1)c1ccc(F)c(CNC2=NCCN2)c1 [Example B16]
Ki [3]: 9.05 nM

COc1cccc(CNC(=O)c2ccc(F)c(CNC3=NCCN3)c2)n1 [Example B25]
Ki [3]: 74.2 nM

COc1cc(CNC(=O)c2cc(CNC3=NCCN3)cc(-c3ccc(F)cc3Cl)c2)cc(OC)c1 [Example 3, 2′-chloro-5-(((4,5-dihydro-1H-imidazol-2-yl)amino)methyl)-N-(3,5-dimethoxybenzyl)-4′-fluoro-[1,1′-biphenyl]-3-carboxamide]
Ki [2]: 2.7 nM

O=C(NCc1ccc(Cl)c(Cl)c1)c1cc(Cn2ccnc2)cc(N2CCCC2)c1 [Example 136, 3-((1H-Imidazol-1-yl)methyl)-N-(3,4-dichlorobenzyl)-5-(pyrrolidin-1-yl)benzamide]
Ki [2]: 6.5 nM

Cc1cc(CNC(=O)c2cc(CNC3=NCCC3)cc(-c3ccc(F)cc3C)n2)ccc1Cl [Example C23]
Ki [1]: 3.13 nM

Cc1cc(CNC(=O)c2cc(CNC3=NCCN3)cc(-c3ccc(F)cc3Cl)c2)ccc1Cl [Example B58]
Ki [3]: 2.06 nM

COc1ccc(C(=O)NCc2ccc(Cl)c(C)c2)cc1CNC1=NCCN1 [Example B42]
Ki [3]: 1.51 nM

Cc1cc(C)cc(CNC(=O)c2ccc(F)c(CNC3=NCCN3)c2)c1 [Example B7]
Ki [3]: 8.46 nM

O=C(NCc1ccc(Cl)c(Cl)c1)c1cc(CNC2=NCCN2)cc(-c2ccc(F)cc2Cl)c1 [Example B54]
Ki [3]: 1.12 nM

O=C(NCc1cc(Cl)cc(Cl)c1)c1ccc(F)c(CNC2=NCCN2)c1 [Example B17]
Ki [3]: 2.47 nM

CC(C)N(Cc1cccc(Cl)c1)C(=O)c1cccc(CNC2=NCCN2)c1 [Example B2]
Ki [3]: 400 nM

O=C(NC(C1CC1)C1CC1)c1cc(CNC2=NCCN2)cc(-c2ccc(F)cc2Cl)c1 [Example 2, 2′-Chloro-N-(dicyclopropylmethyl)-5-(((4,5-dihydro-1H-imidazol-2-yl)amino)methyl)-4′-fluoro-[1,1′-biphenyl]-3-carboxamide]
Ki [2]: 6 nM
